ChEMBL document CHEMBL1201862, “PubChem BioAssay data set” (2004)
The source made the active and inactive calls.

How the values were obtained:
[1] = molecular target: T1, Dual specificity protein phosphatase 6 (Rattus norvegicus, UniProt Q64346)
T1 sequence (Q64346 whole entry): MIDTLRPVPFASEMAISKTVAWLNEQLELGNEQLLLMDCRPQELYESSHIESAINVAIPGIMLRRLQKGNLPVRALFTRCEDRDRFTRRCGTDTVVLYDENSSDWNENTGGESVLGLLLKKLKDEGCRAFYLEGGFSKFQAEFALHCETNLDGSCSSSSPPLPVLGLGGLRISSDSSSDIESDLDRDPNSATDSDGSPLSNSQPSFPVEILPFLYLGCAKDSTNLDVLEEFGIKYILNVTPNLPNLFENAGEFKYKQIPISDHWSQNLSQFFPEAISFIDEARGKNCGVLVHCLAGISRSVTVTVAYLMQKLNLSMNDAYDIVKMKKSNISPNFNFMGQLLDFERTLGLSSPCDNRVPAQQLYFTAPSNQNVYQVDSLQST

[2] = molecular target: T2, Tyrosine-protein phosphatase non-receptor type 7 (Homo sapiens, UniProt P35236); format: functional
T2 sequence (P35236 whole entry): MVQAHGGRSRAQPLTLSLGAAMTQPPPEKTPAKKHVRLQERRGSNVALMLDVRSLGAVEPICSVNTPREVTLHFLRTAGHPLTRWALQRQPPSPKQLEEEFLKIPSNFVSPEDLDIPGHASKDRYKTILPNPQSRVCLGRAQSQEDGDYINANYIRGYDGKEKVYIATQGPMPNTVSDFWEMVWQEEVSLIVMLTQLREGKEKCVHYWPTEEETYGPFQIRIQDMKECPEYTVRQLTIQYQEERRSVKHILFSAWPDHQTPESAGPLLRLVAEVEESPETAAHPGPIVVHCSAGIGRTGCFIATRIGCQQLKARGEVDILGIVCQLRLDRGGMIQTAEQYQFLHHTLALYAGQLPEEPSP

[3] = molecular target: Glyceraldehyde-3-phosphate dehydrogenase (Homo sapiens, UniProt P04406)
[4] = molecular target: T1, Dual specificity protein phosphatase 6; format: functional
[5] = molecular target: T2, Tyrosine-protein phosphatase non-receptor type 7; experiment: redox-dependent HePTP inhibition, mechanism study, biochemical, fluorescence (AID 2068); format: functional
[6] = molecular target: G-protein coupled receptor 55 (Homo sapiens, UniProt Q9Y2T6); experiment: GPR55 agonists via beta-arrestin recruitment, primary screen, imaging, U2OS cells, beta-arrestin-GFP redistribution (AID 1961); format: functional
[7] = molecular target: G-protein coupled receptor 35 (Homo sapiens, UniProt Q9HC97); experiment: GPR35 antagonists blocking zaprinast-driven arrestin recruitment, primary screen, imaging, U2OS, beta-arrestin-GFP, zaprinast agonist (AID 2058); format: functional;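 further: antagonist potency meaning inhibition of agonist-induced arrestin redistribution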
[8] = ADAM10 protease inhibitors, dose response, selectivity assay for ADAM17 exosite inhibitor project, biochemical, FRET peptide substrate, recombinant human ADAM10 (AID 743259);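 further: ADAM10 enzyme cleaving a FRET peptide substrate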
[9] = molecular target: Disintegrin and metalloproteinase domain-containing protein 17 (Homo sapiens, UniProt P78536); experiment: exosite inhibitors of ADAM17, dose response, biochemical (AID 743260)
[10] = cytotoxicity in KRAS-transformed pancreatic duct cells, primary screen, cell-based, fluorescence, HTS (AID 431); format: functional; details: Homo sapiens;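 further: cell line used: HPDE-C7K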
[11] = cytotoxicity in HPDE-C7 cells, cell-based, fluorescence, HTS (AID 430); format: functional; details: Homo sapiens
[12] = molecular target: T3, Short transient receptor potential channel 4 (Mus musculus, UniProt Q9QUQ5); experiment: TRPC4 positive allosteric modulators, dose response, cell-based, HEK293 TRPC4/mu-opioid, Fluo-4 calcium, EC20 DAMGO (AID 434941); format: functional
T3 sequence (Q9QUQ5 whole entry): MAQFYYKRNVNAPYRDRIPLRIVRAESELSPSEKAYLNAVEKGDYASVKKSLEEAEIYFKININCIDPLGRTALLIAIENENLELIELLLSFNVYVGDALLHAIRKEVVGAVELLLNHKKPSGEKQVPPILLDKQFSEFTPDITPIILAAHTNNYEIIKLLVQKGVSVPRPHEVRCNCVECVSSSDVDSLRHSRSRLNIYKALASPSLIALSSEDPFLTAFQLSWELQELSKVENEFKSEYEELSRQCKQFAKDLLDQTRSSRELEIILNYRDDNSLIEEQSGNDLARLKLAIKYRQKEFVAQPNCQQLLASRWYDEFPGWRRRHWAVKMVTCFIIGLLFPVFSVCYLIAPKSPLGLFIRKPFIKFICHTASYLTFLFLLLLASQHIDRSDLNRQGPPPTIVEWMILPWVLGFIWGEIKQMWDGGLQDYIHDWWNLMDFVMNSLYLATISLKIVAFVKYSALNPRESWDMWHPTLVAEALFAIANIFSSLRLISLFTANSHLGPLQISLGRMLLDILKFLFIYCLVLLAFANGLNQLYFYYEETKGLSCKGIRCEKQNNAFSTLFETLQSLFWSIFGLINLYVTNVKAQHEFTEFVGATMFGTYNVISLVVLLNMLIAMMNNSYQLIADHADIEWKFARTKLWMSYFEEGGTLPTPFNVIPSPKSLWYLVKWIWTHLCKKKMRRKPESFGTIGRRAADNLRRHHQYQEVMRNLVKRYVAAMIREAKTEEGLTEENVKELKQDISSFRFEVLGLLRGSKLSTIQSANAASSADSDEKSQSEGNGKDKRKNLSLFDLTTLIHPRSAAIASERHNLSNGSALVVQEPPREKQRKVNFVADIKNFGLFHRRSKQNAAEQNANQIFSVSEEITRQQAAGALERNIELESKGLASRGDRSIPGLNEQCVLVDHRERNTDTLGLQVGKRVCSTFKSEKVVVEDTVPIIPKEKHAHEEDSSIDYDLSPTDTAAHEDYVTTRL

[13] = molecular target: DNA dC->dU-editing enzyme APOBEC-3G (Homo sapiens, UniProt Q9HC16); experiment: Dose Response confirmation of small molecule APOBEC3G DNA Deaminase Inhibitors via a fluorescence-based single-stranded DNA deaminase assay. [Related pubchem assays (depositor defined):AID493012, AID493028]; format: functional
[14] = molecular target: DNA dC->dU-editing enzyme APOBEC-3A (Homo sapiens, UniProt P31941); experiment: APOBEC3A DNA deaminase inhibitors, dose response, biochemical (AID 504722); format: functional
[15] = molecular target: T4, Rac GTPase-activating protein 1 (Homo sapiens, UniProt Q9H0H5); experiment: MgcRacGAP GTPase-activating activity inhibitors, confirmation, biochemical, ADP Hunter fluorescence, primary and confirmatory (AID 624330); format: functional
T4 sequence (Q9H0H5 whole entry): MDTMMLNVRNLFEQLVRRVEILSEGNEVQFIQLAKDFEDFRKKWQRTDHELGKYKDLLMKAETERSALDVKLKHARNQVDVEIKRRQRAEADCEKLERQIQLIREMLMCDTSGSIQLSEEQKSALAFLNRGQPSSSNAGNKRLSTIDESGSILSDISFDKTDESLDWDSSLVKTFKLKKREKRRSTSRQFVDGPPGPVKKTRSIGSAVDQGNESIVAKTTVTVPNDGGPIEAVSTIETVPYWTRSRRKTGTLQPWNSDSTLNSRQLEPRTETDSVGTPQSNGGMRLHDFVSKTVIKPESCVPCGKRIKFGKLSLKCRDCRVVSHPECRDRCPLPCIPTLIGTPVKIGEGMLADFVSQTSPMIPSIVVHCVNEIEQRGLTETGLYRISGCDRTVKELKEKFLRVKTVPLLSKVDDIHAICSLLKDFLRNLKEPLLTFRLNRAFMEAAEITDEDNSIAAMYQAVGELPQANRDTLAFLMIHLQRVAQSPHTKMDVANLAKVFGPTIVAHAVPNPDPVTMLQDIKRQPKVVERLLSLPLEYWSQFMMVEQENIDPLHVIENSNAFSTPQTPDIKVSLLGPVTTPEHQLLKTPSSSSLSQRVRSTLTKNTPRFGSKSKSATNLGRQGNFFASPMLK

[16] = molecular target: T5, Eukaryotic translation initiation factor 2-alpha kinase 3 (Homo sapiens, UniProt Q9NZJ5); experiment: Dose response cell-based high-throughput screening assay to measure PERK inhibition. [Related pubchem assays: 1416 ]; format: functional
T5 sequence (Q9NZJ5 whole entry): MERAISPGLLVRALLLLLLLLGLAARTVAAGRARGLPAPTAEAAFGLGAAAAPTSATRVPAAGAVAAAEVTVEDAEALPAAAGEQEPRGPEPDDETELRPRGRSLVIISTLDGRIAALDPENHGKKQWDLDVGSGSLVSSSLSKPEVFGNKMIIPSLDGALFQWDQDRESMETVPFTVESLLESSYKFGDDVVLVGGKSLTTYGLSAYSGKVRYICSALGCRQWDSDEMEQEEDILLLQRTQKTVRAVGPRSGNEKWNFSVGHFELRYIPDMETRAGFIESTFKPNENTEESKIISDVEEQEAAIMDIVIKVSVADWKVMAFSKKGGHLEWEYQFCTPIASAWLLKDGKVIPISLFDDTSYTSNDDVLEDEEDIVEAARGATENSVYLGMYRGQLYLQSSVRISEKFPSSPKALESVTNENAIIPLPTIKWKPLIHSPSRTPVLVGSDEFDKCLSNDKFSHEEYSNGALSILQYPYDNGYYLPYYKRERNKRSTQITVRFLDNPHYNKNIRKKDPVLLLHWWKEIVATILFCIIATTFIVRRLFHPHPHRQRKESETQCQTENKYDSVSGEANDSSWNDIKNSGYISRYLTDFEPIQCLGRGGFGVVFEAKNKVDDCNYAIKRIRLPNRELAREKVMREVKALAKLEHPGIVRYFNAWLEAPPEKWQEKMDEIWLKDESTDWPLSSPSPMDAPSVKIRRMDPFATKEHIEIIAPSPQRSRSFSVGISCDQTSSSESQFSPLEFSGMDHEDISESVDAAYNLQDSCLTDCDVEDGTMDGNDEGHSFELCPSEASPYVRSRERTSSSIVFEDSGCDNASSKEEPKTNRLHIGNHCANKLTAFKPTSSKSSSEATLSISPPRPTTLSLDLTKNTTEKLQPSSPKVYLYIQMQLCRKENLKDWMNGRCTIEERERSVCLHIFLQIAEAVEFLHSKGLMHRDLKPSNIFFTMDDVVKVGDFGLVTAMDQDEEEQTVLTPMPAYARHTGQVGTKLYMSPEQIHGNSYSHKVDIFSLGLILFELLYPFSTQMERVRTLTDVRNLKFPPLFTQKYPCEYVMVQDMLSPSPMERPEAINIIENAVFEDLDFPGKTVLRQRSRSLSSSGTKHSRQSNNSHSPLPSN

[17] = molecular target: T5, Eukaryotic translation initiation factor 2-alpha kinase 3; experiment: Counterscreen assay for PERK inhibitors: Dose response cell-based high throughput screening assay to measure inhibition of PERK at 6 hours. [Related pubchem assays: 1522, 1416 ]; format: functional
[18] = cytotoxicity in HEK-293T cells, dose response, cytotoxicity control for BCR NF-kB inhibitor project, luminescence, B-cell screen hits (AID 489021); format: functional, cell-based;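 further: HEK-293T cells carrying an NF-kB luciferase reporter; cells exposed to compound for about 14 hours before viability readout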
[19] = molecular target: Eukaryotic translation initiation factor 4H (Homo sapiens, UniProt Q15056); experiment: human eIF4H binding inhibitors, primary screen, translation initiation inhibitor project, biochemical, uHTS, fluorescence polarization (AID 2012)
[20] = molecular target: Polyadenylate-binding protein 1 (Homo sapiens, UniProt P11940); experiment: PABP poly(A) RNA binding inhibitors, primary screen, biochemical, fluorescence polarization, uHTS (AID 2014)
[21] = Vero E6 cell cytotoxicity, dose response, cytotoxicity control for non-replicating M. tuberculosis project, secondary assay (AID 492998); format: functional, VeroE6; details: Vero C1008
[22] = HepG2 cell cytotoxicity, dose response, cytotoxicity control for non-replicating M. tuberculosis project (AID 489018); format: functional; details: Mycobacterium tuberculosis
[23] = THP-1 cell cytotoxicity, dose response, cytotoxicity control for non-replicating M. tuberculosis project (AID 489025); format: functional

DNA dC->dU-editing enzyme APOBEC-3G, sequence (Q9HC16 whole entry): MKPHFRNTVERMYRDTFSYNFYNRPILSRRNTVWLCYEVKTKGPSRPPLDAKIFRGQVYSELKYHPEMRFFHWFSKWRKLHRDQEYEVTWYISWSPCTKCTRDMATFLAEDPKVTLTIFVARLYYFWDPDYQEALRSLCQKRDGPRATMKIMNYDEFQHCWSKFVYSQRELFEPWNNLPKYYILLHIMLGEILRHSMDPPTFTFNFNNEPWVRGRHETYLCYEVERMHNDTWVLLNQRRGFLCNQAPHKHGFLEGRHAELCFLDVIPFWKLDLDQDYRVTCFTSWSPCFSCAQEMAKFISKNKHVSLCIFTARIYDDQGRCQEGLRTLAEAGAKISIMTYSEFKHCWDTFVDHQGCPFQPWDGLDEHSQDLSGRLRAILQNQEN
G-protein coupled receptor 55, sequence (Q9Y2T6 whole entry): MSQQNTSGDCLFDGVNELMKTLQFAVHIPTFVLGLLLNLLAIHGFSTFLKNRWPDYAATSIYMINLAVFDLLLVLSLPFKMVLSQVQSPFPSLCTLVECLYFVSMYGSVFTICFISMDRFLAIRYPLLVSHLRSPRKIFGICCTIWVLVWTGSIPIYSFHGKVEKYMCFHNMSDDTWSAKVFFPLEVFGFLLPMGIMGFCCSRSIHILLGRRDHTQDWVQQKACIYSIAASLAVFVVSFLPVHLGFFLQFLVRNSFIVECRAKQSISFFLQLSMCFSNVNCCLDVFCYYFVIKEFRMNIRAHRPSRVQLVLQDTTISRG
DNA dC->dU-editing enzyme APOBEC-3A, sequence (P31941 whole entry): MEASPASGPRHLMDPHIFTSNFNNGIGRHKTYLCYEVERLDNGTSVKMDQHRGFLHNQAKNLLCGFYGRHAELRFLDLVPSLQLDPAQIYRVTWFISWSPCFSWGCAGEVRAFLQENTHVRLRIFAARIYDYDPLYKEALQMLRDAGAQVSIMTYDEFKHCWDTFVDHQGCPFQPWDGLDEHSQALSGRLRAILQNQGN
Glyceraldehyde-3-phosphate dehydrogenase, sequence (P04406 whole entry): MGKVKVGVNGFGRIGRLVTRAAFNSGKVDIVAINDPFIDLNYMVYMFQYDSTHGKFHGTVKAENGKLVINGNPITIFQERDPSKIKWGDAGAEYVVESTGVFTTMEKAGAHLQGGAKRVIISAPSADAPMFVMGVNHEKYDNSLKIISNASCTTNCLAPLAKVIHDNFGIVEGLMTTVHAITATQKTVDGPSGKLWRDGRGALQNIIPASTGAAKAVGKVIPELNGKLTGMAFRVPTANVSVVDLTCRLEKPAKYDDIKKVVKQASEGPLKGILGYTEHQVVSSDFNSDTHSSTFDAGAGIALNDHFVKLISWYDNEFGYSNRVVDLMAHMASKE
Polyadenylate-binding protein 1, sequence (P11940 whole entry): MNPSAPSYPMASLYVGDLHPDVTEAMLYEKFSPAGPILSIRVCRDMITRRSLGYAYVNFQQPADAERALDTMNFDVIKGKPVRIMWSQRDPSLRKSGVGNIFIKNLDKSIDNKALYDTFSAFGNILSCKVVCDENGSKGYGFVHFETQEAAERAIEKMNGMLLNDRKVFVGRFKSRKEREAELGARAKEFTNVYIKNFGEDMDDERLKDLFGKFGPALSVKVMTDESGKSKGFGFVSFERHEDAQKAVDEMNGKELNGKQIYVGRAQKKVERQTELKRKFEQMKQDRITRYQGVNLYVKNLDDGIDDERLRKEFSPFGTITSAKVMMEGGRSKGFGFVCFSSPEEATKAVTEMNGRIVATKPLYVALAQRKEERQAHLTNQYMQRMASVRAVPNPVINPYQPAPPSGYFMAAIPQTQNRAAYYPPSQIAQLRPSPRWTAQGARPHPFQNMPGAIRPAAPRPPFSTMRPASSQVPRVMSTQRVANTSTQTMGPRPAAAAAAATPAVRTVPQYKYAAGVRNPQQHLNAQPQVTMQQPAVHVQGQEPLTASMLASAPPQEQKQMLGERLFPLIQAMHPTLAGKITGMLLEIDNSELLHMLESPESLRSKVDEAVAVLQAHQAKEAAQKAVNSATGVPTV
G-protein coupled receptor 35, sequence (Q9HC97 whole entry): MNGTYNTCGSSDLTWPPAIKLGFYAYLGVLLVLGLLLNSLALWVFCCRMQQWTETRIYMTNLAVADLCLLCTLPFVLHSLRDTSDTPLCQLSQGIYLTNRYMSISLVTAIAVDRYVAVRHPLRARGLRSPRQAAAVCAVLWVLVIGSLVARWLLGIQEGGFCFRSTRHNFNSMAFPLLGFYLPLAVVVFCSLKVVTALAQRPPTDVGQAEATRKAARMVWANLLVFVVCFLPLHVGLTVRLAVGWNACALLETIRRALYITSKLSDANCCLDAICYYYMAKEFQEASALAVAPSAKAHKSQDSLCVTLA
Disintegrin and metalloproteinase domain-containing protein 17, sequence (P78536 whole entry, the tested form may be a part): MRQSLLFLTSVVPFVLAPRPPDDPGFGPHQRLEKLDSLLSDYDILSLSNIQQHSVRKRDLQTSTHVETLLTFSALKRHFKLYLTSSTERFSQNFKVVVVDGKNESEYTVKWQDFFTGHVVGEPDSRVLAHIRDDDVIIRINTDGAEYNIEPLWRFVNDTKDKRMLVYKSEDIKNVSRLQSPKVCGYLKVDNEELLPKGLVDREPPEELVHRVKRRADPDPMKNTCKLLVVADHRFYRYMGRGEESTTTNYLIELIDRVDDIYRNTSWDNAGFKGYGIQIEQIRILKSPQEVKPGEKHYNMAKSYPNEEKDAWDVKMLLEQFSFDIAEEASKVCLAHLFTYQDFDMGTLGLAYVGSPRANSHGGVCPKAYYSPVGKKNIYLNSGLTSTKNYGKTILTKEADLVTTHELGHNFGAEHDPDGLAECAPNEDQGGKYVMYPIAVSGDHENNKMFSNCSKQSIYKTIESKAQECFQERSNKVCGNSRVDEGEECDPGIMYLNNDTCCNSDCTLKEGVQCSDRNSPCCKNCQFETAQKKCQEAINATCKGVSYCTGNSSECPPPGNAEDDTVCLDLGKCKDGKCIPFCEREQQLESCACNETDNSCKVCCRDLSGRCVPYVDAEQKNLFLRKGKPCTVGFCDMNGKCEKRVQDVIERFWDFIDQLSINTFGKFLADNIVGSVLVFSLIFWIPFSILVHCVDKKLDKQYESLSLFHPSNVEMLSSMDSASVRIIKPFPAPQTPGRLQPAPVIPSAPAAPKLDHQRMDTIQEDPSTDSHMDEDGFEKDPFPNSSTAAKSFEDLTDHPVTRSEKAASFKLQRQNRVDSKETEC

CCCCCCCCCCCCCCCCCCC=CCCCCCC(=O)O
IC50 [1]: > 100 µM (inactive) | IC50 [2]: 0.801 µM (active) | IC50 [3]: > 100 µM (not active) | IC50 [4]: > 100 µM (inactive)

CC1(C)CC2CC(C)(CN2C(=O)Nc2ccc3nc(-c4ccco4)c(-c4ccco4)nc3c2)C1 (configuration not stated)
IC50 [5]: 2.92 µM (active)

Cc1[nH]c2ccc(-c3nnc(SCC(=O)NCc4ccco4)n3Cc3ccccc3)cc2c1C
EC50 [6]: 5.78 µM (active)

Cc1nc(N2CCCCC2)c2c(C)c(C(=O)Nc3ccc4c(c3)OCCO4)sc2n1
IC50 [7]: 2.07 µM (active) | IC50 [8]: > 69.5 µM (inactive) | IC50 [9]: > 69.5 µM (inactive)

CCCCCCn1c(N2CCN(c3ccccc3)CC2)nc2c1c(=O)n(C)c(=O)n2C
EC50 [10]: > 20 µM (not active) | EC50 [11]: > 20 µM (not active) | EC50 [12]: 6.68 µM (active)

O=C(O)c1ccc(/C=N/n2cc(-c3ccccc3)nc2S)cc1
IC50 [13]: 3.33 µM (active) | IC50 [14]: > 100 µM (inactive)

COc1cc(C(=S)NCc2ccc(Cl)c(C)c2)ccc1O
IC50 [5]: 3.06 µM (active) | IC50 [4]: > 100 µM (inactive)

CCn1c(S)nnc1CSc1nc2ccccc2s1
EC50 [6]: > 32 µM (inactive) | IC50 [13]: 3.73 µM (active) | IC50 [14]: > 100 µM (inactive)

Cc1c(O)ccc2c3c(c(=O)oc12)CCCC3
IC50 [15]: 22.5 µM (active) | EC50 [16]: > 55.7 µM (not active) | EC50 [17]: > 55.7 µM (not active)

CCC(CC)C(=O)Nc1ccc(Sc2ccc([N+](=O)[O-])cc2)cc1
IC50 [18]: > 80 µM (inactive)

CCCC[N+]12C3C[C@H](C4[C@H](O)[C@]5(C[C@@H]41)c1ccccc1N(C)[C@@H]35)[C@H](CC)[C@H]2O (some centres not stated)
IC50 [19]: > 100 µM (inactive) | IC50 [20]: 5.27 µM (active)

N#Cc1ccsc1NC(=O)c1ccc(Cl)c([N+](=O)[O-])c1
CC50 [21]: 13.9 µM (active) | EC50 [16]: > 55.7 µM (not active) | CC50 [22]: > 20 µM (active) | CC50 [23]: 20.9 µM (active) | EC50 [17]: > 55.7 µM (not active)

CC1Cc2ccccc2N1S(=O)(=O)c1cnc(Cl)c(Cl)c1 (configuration not stated)
IC50 [18]: > 80 µM (inactive)

O=C(CCN1CCN(Cc2ccccc2)CC1)Nc1ccc(OCc2ccccc2)cc1
EC50 [12]: 0.13 µM (active)
